Reference: patent US4757087A, “Carbacyclin derivatives” (Sankyo Company Limited, priority 1985, dated 1988)

How the values were obtained:
aspirin-induced ulcer = test: Effect on aspirin-induced ulcer (Brodie and Chase method); assay type: in vivo, rats of the Donryu strain (male); conditions: orally, rats, 15 min before 100 mg/kg aspirin, 4 h after aspirin
Experimental: According to a method reported by Brodie and Chase [Gastroenterology 53, 604 (1967)], the anti-ulcer effect was determined. Five male rats of the Donryu strain (body weight 170 to 200 g) were used for each of the control and test compound groups. After being fasted for 24 hours, the rats were orally given certain concentrations of the test compounds and 15 minutes later given orally 100 mg/kg of aspirin (Sanko Pharmaceutical Inc). Four hours after the aspirin administration, the stomach was extracted and expanded with 10 ml of 0.5% formalin. An ulcer index was calculated from the total area of ulceration for the rats of the treated and control groups. The inhibition rate was calculated by comparing the ulcer indices of both groups.

[1] = Acute toxicity testing, intravenous; assay type: in vivo; conditions: intravenously, 10 mg per kg of body weight, five rats
[2] = tested on: blood platelet aggregation; conditions: GB 2012265A, U.S. Pat. No. 4,238,414; cited from earlier work
[3] = GB 2012265A, U.S. Pat. No. 4,238,414; cited from earlier work

SMILES	Inhibition Rate (%) (aspirin-induced ulcer; 30 γ/kg (γ = 10^-6 g))	Inhibition Rate (%) (aspirin-induced ulcer; 100 γ/kg (γ = 10^-6 g))	also measured
C=CCCCC(C)[C@H](O)/C=C/[C@@H]1[C@H]2C/C(=C/CCCC(=O)O)C[C@H]2C[C@H]1O (stereo partly drawn) [Preparative Example 1, 16-Methyl-20-methylenecarbacyclin]	95	98	Inhibition Rate (%) (aspirin-induced ulcer; 10 γ/kg (γ = 10^-6 g)): 45%; deaths (acute toxicity) [1]: no deaths occurred
C=CCCCC(C)(C)[C@H](O)/C=C/[C@@H]1[C@H]2C/C(=C/CCCC(=O)O)C[C@H]2C[C@H]1O [Preparative Example 3, 16,16-Dimethyl-20-methylenecarbacyclin]	92	–	–
CC(C)=CCCCC(C)[C@H](O)/C=C/[C@@H]1[C@H]2C/C(=C/CCCC(=O)O)C[C@H]2C[C@H]1O (stereo partly drawn) [Preparative Example 6, 16-Methyl-20-isopropylidenecarbacyclin]	84	–	–
CCCCC[C@H](O)/C=C/[C@@H]1[C@H]2C/C(=C/CCCC(=O)O)C[C@H]2C[C@H]1O [Reference Compound A, Carbacyclin]	–	0	Inhibition Rate (%) (aspirin-induced ulcer; 300 γ/kg (γ = 10^-6 g)): 0%; inhibition of blood platelet aggregation [2]: inhibition of blood platelet aggregation; chemical stability [3]: chemically stable
CCC=CC[C@H](O)/C=C/[C@@H]1[C@H]2C/C(=C/CCCC(=O)O)C[C@H]2C[C@H]1O [Reference Compound B, 17,18-Didehydrocarbacyclin]	15	47	–
CC(C)=CCCCC[C@H](O)/C=C/[C@@H]1[C@H]2C/C(=C/CCCC(=O)O)C[C@H]2C[C@H]1O [Reference Compound C, 20-Isopropylidenecarbacyclin]	–	–	Inhibition Rate (%) (aspirin-induced ulcer; 300 γ/kg (γ = 10^-6 g)): 4%
CC(C)=CCCC(C)C[C@H](O)/C=C/[C@@H]1[C@H]2C/C(=C/CCCC(=O)O)C[C@H]2C[C@H]1O (stereo partly drawn) [Reference Compound D, 17-Methyl-20-isopropylidenecarbacyclin]	30	98	–
